Converted amounts (≈) assume the structure as drawn. One block for each compound: values may come before it.
Columns and labels:
[1] = system: C. albicans ATCC MYA-2310(S) (strain E); experiment: MIC, broth microdilution (CLSI M27-A3), yeast strain E; format: cell-based; details: Candida albicans; MIC-0, strain E, 35 °C 48 h
Protocol: (§1) The final concentrations of compounds 3, 4, 7a, 7b, 9, and 16, as well as that of TOB tested in this study ranged from 0.24–62.5 μg/mL. CAS was used as a positive control and the final concentrations tested for CAS ranged from 0.03–31.3 μg/mL. Briefly, overnight yeast cultures were grown in yeast peptone dextrose (YPD) broth and the cell density was adjusted to an OD600 of 0.12 (~1 × 10^6 CFU/mL) by using a spectrophotometer. Yeast cell suspensions were further diluted to achieve 1–5 × 10^3 CFU/mL in RPMI 1640 medium, and 100 μL of these yeast cells was added to 96-well microtiter plates containing RPMI 1640 medium and titrated compounds. Each test was performed in triplicate. The plates were incubated at 35 °C for 48 h.

[2] = system: Cryptococcus neoformans clinical isolate CN3; experiment: MIC, broth microdilution (CLSI M27-A3), CN3; format: cell-based; details: MIC-0, CN3, 35 °C 48 h
Protocol: as §1

[3] = system: Candida parapsilosis clinical isolate CP2; experiment: MIC, broth microdilution (CLSI M27-A3), CP2; format: cell-based; details: Lodderomyces parapsilosis; MIC-0, CP2, 35 °C 48 h
Protocol: as §1

[4] = system: Aspergillus flavus ATCC MYA-3631 (strain K); experiment: MIC, filamentous fungi (CLSI M38-A2), strain K; format: cell-based; details: Aspergillus flavus, 72 h, MIC-0, strain K, 35 °C 72 h; read-out: MIC
Protocol: (§2) The spores were harvested from sporulating cultures growing on potato dextrose agar (PDA) by filtration through sterile glass wool and enumerated by using a hemocytometer (Hausser Scientific, Horsham, PA, USA) to obtain the desired inoculum size. Two-fold serial dilutions of compounds 3, 4, 7a, 7b, 9, and 16, as well as CAS and TOB were made in sterile 96-well microtiter plates to obtain the final concentration range of 0.24–62.5 μg/mL for TOB and TOB derivatives as well as 0.03–31.3 μg/mL for CAS in the RPMI 1640 medium. The spore suspensions were added to the wells to afford a final concentration of 5 × 10^5 spores/mL. The plates were incubated at 35 °C for 72 h. […] Each test was performed in triplicate.

[5] = system: C. albicans ATCC MYA-2876(S) (strain C); experiment: MIC, broth microdilution (CLSI M27-A3), yeast strain C; format: cell-based; details: Candida albicans; MIC-0, strain C, 35 °C 48 h
Protocol: as §1

[6] = system: Aspergillus nidulans ATCC 38163 (strain L); experiment: MIC, filamentous fungi (CLSI M38-A2), strain L; format: cell-based; details: Aspergillus nidulans, ATCC38163, 72 h, MIC-0, strain L, 35 °C 72 h; read-out: MIC
Protocol: as §2

[7] = system: Candida glabrata ATCC 2001 (strain H); experiment: MIC, broth microdilution (CLSI M27-A3), yeast strain H; format: cell-based; details: Nakaseomyces glabratus, ATCC2001; MIC-0, strain H, 35 °C 48 h
Protocol: as §1

[8] = system: Candida glabrata clinical isolate CG2; experiment: MIC, broth microdilution (CLSI M27-A3), CG2; format: cell-based; details: Nakaseomyces glabratus; MIC-0, CG2, 35 °C 48 h
Protocol: as §1

[9] = system: Cryptococcus neoformans clinical isolate CN1; experiment: MIC, broth microdilution (CLSI M27-A3), CN1; format: cell-based; details: MIC-0, CN1, 35 °C 48 h
Protocol: as §1

[10] = system: Cryptococcus neoformans clinical isolate CN2; experiment: MIC, broth microdilution (CLSI M27-A3), CN2; format: cell-based; details: MIC-0, CN2, 35 °C 48 h
Protocol: as §1

[11] = system: Candida krusei ATCC 6258 (strain I); experiment: MIC, broth microdilution (CLSI M27-A3), yeast strain I; format: cell-based; details: Pichia kudriavzevii, ATCC6258; MIC-0, strain I, 35 °C 48 h
Protocol: as §1

[12] = system: C. albicans ATCC 64124 (strain B); experiment: MIC, broth microdilution (CLSI M27-A3), yeast strain B; format: cell-based; details: Candida albicans, ATCC64124; MIC-0, strain B, 35 °C 48 h
Protocol: as §1

[13] = system: C. albicans ATCC MYA-1003(R) (strain G); experiment: MIC, broth microdilution (CLSI M27-A3), yeast strain G; format: cell-based; details: Candida albicans; MIC-0, strain G, 35 °C 48 h
Protocol: as §1

[14] = system: Candida glabrata clinical isolate CG1; experiment: MIC, broth microdilution (CLSI M27-A3), CG1; format: cell-based; details: Nakaseomyces glabratus; MIC-0, CG1, 35 °C 48 h
Protocol: as §1

[15] = system: Candida parapsilosis clinical isolate CP3; experiment: MIC, broth microdilution (CLSI M27-A3), CP3; format: cell-based; details: MIC-0, CP3, 35 °C 48 h
Protocol: as §1

[16] = system: Candida glabrata clinical isolate CG3; experiment: MIC, broth microdilution (CLSI M27-A3), CG3; format: cell-based; details: Nakaseomyces glabratus; MIC-0, CG3, 35 °C 48 h
Protocol: as §1

[17] = system: nine non-albicans Candida strains (H-J, CG1-3, CP1-3); experiment: MIC across the panel of nine non-albicans Candida strains; format: cell-based, Candida glabrata, Candida krusei, Candida parapsilosis
Protocol: as §1

[18] = system: seven C. albicans strains (A-G); experiment: MIC across the panel of seven C. albicans strains; format: cell-based; details: Candida albicans; across all seven C. albicans strains tested
Protocol: as §1

[19] = system: C. albicans ATCC MYA-1237(R) (strain F); experiment: MIC, broth microdilution (CLSI M27-A3), yeast strain F; format: cell-based; details: Candida albicans; MIC-0, strain F, 35 °C 48 h
Protocol: as §1

[20] = system: Candida parapsilosis clinical isolate CP1; experiment: MIC, broth microdilution (CLSI M27-A3), CP1; format: cell-based; details: Lodderomyces parapsilosis; MIC-0, CP1, 35 °C 48 h
Protocol: as §1

[21] = system: Aspergillus terreus ATCC MYA-3633 (strain M); experiment: MIC, filamentous fungi (CLSI M38-A2), strain M; format: cell-based; details: MIC-0, strain M, 35 °C 72 h
Protocol: as §2

[22] = system: C. albicans ATCC 10231 (strain A); experiment: MIC, broth microdilution (CLSI M27-A3), yeast strain A; format: cell-based, Candida albicans
Protocol: as §1

[23] = system: C. albicans ATCC 90819(R) (strain D); experiment: MIC, broth microdilution (CLSI M27-A3), yeast strain D; format: cell-based; details: Candida albicans, ATCC90819; MIC-0, strain D, 35 °C 48 h
Protocol: as §1

[24] = system: Candida parapsilosis ATCC 22019 (strain J); experiment: MIC, broth microdilution (CLSI M27-A3), yeast strain J; format: cell-based; details: Lodderomyces parapsilosis, ATCC22019; MIC-0, strain J, 35 °C 48 h
Protocol: as §1

[25] = system: C. albicans ATCC 10231 (strain A); experiment: Time-kill assay, strain A; format: cell-based, Candida albicans
Protocol: (§3) Time-kill assays were used to assess the inhibitory efficiency of 7b against three yeast strains, C. albicans ATCC 10231 (strain A), C. parapsilosis ATCC 22019 (strain J), and C. neoformans clinical isolate CN1. The protocol for time-kill assays followed methods previously described with minor modifications. Yeast cultures were grown overnight in YPD broth at 35 °C with shaking (200 rpm). A working stock of fungal cells was made by diluting cultures in RPMI 1640 medium to an OD600 of 0.125, approximately 1 × 10^6 CFU/mL. From the working stock, 100 μL of cells was added to 4.9 mL of RPMI 1640 medium in sterile culture tubes, making the starting fungal cell concentration […]. Compounds were then added to the fungal cells. The treatment conditions included sterile control, growth control, TOB (parent; negative control), voriconazole (VOR) at 1× MIC (positive control), 7b at 1× and 4× MIC. The treated fungal cultures were incubated at 35 °C with shaking (200 rpm) for 24 h. The samples were taken from the different treatments at regular time points (0, 3, 6, 9, 12, and 24 h.) and plated in duplicates. For each time point, cultures were vortexed, 100 μL of culture was aspirated, and 10-fold serial dilutions were made in sterile ddH2O. From the appropriate dilutions, 100 μL of fungal suspension was spread on PDA plates and incubated at 35 °C for 48 h before the colony counts were determined. At 24 h, 50 μL of 1 mM resazurin was added to the treatments and incubated at 35 °C with rotation for 2 h in the dark for visual inspection. Experiments were performed in duplicate.

[26] = system: C. neoformans (strain CN1); experiment: Time-kill assay, CN1; format: cell-based, Cryptococcus neoformans; details: controls TOB 15.6 μg/mL and VOR 1× MIC, 24-h period
Protocol: as §3

MIC [1]: 62.5 µg/mL (≈ 98.3 µM)
MIC [2]: 3.9 µg/mL (≈ 6.13 µM)
MIC [3]: 62.5 µg/mL (≈ 98.3 µM)
MIC [4]: > 62.5 µg/mL
MIC [5]: > 62.5 µg/mL
MIC [6]: 3.9 µg/mL (≈ 6.13 µM)
MIC [7]: 62.5 µg/mL (≈ 98.3 µM)
MIC [8]: 62.5 µg/mL (≈ 98.3 µM)
MIC [9]: 1.95 µg/mL (≈ 3.07 µM)
MIC [10]: 0.975 µg/mL (≈ 1.53 µM)
MIC [11]: 31.3 µg/mL (≈ 49.2 µM)
MIC [12]: 62.5 µg/mL (≈ 98.3 µM)
MIC [13]: 62.5 µg/mL (≈ 98.3 µM)
MIC [14]: > 62.5 µg/mL
MIC [15]: 62.5 µg/mL (≈ 98.3 µM)
MIC [16]: 62.5 µg/mL (≈ 98.3 µM)
MIC [17]: 31.3 to 62.5 µg/mL (≈ 49.2 to 98.3 µM)
MIC [18]: ≥ 62.5 µg/mL
MIC [19]: 62.5 µg/mL (≈ 98.3 µM)
MIC [20]: 62.5 µg/mL (≈ 98.3 µM)
MIC [21]: > 62.5 µg/mL
MIC ([22]; Candida albicans, ATCC10231, MIC-0, strain A, 35 °C 48 h): 62.5 µg/mL (≈ 98.3 µM)
MIC [23]: 62.5 µg/mL (≈ 98.3 µM)
MIC [24]: 31.3 µg/mL (≈ 49.2 µM)
SMILES: CCCCCCCCCCCCOCC1OC(OC2C(N)CC(N)C(OC3OC(CN)C(O)CC3N)C2O)C(O)C(N)C1O [Compound 16, O-3-Amino-3-deoxy-6-O-dodecyl-α-D-glucopyranosyl-(1→6)-O-[2,6-diamino-2,3,6-trideoxy-α-D-ribo-hexopyranosyl-(1→4)]-2-deoxy-D-streptamine]

SMILES: C[C@@H](c1ncncc1F)[C@](O)(Cn1cncn1)c1ccc(F)cc1F [VOR, voriconazole, reference compound]
reduction of CFU ([25]; 1× MIC (7b 3.9 μg/mL; VOR 1.0 μg/mL), after 9 h of treatment): ≥ 2 log10
effect on growth (time-kill, in words) ([25]; 24-h period, TOB 15.6 μg/mL, VOR 1× MIC 1.0 μg/mL): maintained a fungistatic activity up to the 24-h period
effect on growth (time-kill, in words) [26]: little to no growth inhibitory effect
1× MIC value ([22]; as used in the time-kill study, strain A): 1.0 µg/mL

— paper PMC5971061, “Differential Effects of Linkers on the Activity of Amphiphilic Tobramycin Antifungals” (Molecules : A Journal of Synthetic Chemistry and Natural …, 2018)
